In ChEMBL document CHEMBL1130587, “General synthesis of 3-substituted alkenyl GABA as potential anticonvulsants” (Bioorg Med Chem Lett, 1998):
Active and inactive are the calls of the source. The rule behind the calls is not given here.

Assay: Compound was evaluated for its ability to increase the […] glutamate decarboxylase at 2.5 mM dose
Design: scale not given: the % may be the effect or the level left
With `CC(C)CC(CN)CC(=O)O` (configuration not stated) the Activity was 50%.

Assay: Half life at a concentration 1 mM.
Format: ADME
`C=CC(N)CCC(=O)O` (configuration not stated) [VIGABATRIN] gave a half-life at 1000 µM of 0.3 min. Compound `C=CC(CN)CC(=O)O` (configuration not stated) has a half-life at 1000 µM of 39 min.

Assay: Compound was evaluated for the […] glutamate decarboxylase at 2.5 mM dose; No significant activation
For `C=CC(CN)CC(=O)O` (configuration not stated), the Activity was “inactive”. In the case of `CC(C)=CC(CN)CC(=O)O` (configuration not stated), the Activity was “inactive”. With `CC(C)/C=C\C(CN)CC(=O)O` (configuration not stated) the Activity was “inactive”. For `CCC/C=C\C(CN)CC(=O)O` (configuration not stated), the Activity was “inactive”. With `CC/C=C\C(CN)CC(=O)O` (configuration not stated) the Activity was “inactive”. For `C/C=C\C(CN)CC(=O)O` (configuration not stated), the Activity was “inactive”. For `C/C=C(\C)C(CN)CC(=O)O` (configuration not stated), the Activity was “inactive”. In the case of `C/C=C/C(CN)CC(=O)O` (configuration not stated), the Activity was “inactive”. In the case of `CC/C=C/C(CN)CC(=O)O` (configuration not stated), the Activity was “inactive”.
